How the values were obtained:
Format in all cases: in vivo
Viola tricolor [1] = assay: Post-emergence herbicidal action against VIOTR
Description: (§1) Seeds of monocotyledonous and dicotyledonous weed and crop plants are laid out in sandy loam soil in wood-fiber pots, covered with soil and cultivated in a greenhouse under good growth conditions. 2 to 3 weeks after sowing, the test plants are treated at the one-leaf stage. The compounds of the invention, formulated in the form of wettable powders (WP) or as emulsion concentrates (EC), are then sprayed onto the green parts of the plants in the form of an aqueous suspension or emulsion at a water application rate equivalent to 600 to 800 l/ha, with addition of 0.2% wetting agent. After the test plants have been left to stand in the greenhouse under optimal growth conditions for about 3 weeks, the action of the preparations is assessed visually in comparison to untreated controls (herbicidal action in percent (%): 100% activity=the plants have died, 0% activity=like control plants). […] The tables below illustrate, in an illustrative manner, the post-emergence herbicidal action of the compounds of the invention, the herbicidal activity being stated in percent.

Setaria viridis [2] = assay: Post-emergence herbicidal action against SETVI; conditions: visual assessment about 3 weeks after treatment
Description: as §1

Amaranthus retroflexus [3] = assay: Pre-emergence herbicidal action against AMARE; conditions: visual score after 3 weeks vs untreated controls
Text: (§2) Seeds of monocotyledonous and dicotyledonous weed plants and crop plants are laid out in sandy loam soil in wood-fiber pots and covered with soil. The compounds of the invention, formulated in the form of wettable powders (WP) or as emulsion concentrates (EC), are then applied to the surface of the covering soil in the form of an aqueous suspension or emulsion at a water application rate equivalent to 600 to 800 l/ha, with addition of 0.2% wetting agent. After the treatment, the pots are placed in a greenhouse and kept under good growth conditions for the trial plants. The damage to the test plants is scored visually after a test period of 3 weeks by comparison with untreated controls (herbicidal activity in percent (%): 100% activity=the plants have died, 0% activity=like control plants). […] The tables below illustrate, in an illustrative manner, the post-emergence herbicidal action of the compounds of the invention, the herbicidal activity being stated in percent.

Echinochloa crus-galli [4] = assay: Pre-emergence herbicidal action against ECHCG; conditions: 80 g/ha; visual score after 3 weeks vs untreated controls
Text: as §2

Setaria viridis [5] = assay: Pre-emergence herbicidal action against SETVI
Text: as §2

Matricaria inodora [6] = assay: Pre-emergence herbicidal action against MATIN; conditions: visual score after 3 weeks vs untreated controls
Text: as §2

Viola tricolor [7] = assay: Pre-emergence herbicidal action against VIOTR
Text: as §2

Amaranthus retroflexus [8] = assay: Post-emergence herbicidal action against AMARE; conditions: visual assessment about 3 weeks after treatment
Description: as §1

Alopecurus myosuroides [9] = assay: Post-emergence herbicidal action against ALOMY
Description: as §1

Veronica persica [10] = assay: Pre-emergence herbicidal action against VERPE; conditions: 80 g/ha
Text: as §2

Abutilon theophrasti [11] = assay: Post-emergence herbicidal action against ABUTH
Description: as §1

Digitaria sanguinalis = assay: Pre-emergence herbicidal action against DIGSA
Text: as §2

Matricaria inodora [12] = assay: Post-emergence herbicidal action against MATIN; conditions: visual assessment about 3 weeks after treatment
Description: as §1

Alopecurus myosuroides [13] = assay: Pre-emergence herbicidal action against ALOMY; conditions: visual score after 3 weeks vs untreated controls
Text: as §2

Abutilon theophrasti [14] = assay: Pre-emergence herbicidal action against ABUTH; conditions: visual score after 3 weeks vs untreated controls
Text: as §2

Pharbitis purpurea = assay: Post-emergence herbicidal action against PHBPU; conditions: visual assessment about 3 weeks after treatment
Description: as §1

Polygonum convolvulus = assay: Pre-emergence herbicidal action against POLCO
Text: as §2

Veronica persica [15] = assay: Post-emergence herbicidal action against VERPE; conditions: visual assessment about 3 weeks after treatment
Description: as §1

Lolium rigidum = assay: Pre-emergence herbicidal action against LOLRI; conditions: 80 g/ha
Text: as §2

Echinochloa crus-galli [16] = assay: Post-emergence herbicidal action against ECHCG; conditions: visual assessment about 3 weeks after treatment
Description: as §1

Avena fatua [17] = assay: Pre-emergence herbicidal action against AVEFA; conditions: 80 g/ha; visual score after 3 weeks vs untreated controls
Text: as §2

Avena fatua [18] = assay: Post-emergence herbicidal action against AVEFA; conditions: 20 g/ha, visual assessment about 3 weeks after treatment
Description: as §1

Row | SMILES | Post-emergence action against VIOTR in % (Viola tricolor [1]; 20 g/ha) [%] | Post-emergence action against SETVI in % (Setaria viridis [2]; 20 g/ha) [%] | Pre-emergence action against AMARE (Amaranthus retroflexus [3]; 20 g/ha) [%] | Pre-emergence action against AMARE (Amaranthus retroflexus [3]; 80 g/ha) [%] | Pre-emergence action against ECHCG (Echinochloa crus-galli [4]) [%] | Pre-emergence action against SETVI (Setaria viridis [5]; 80 g/ha) [%] | Pre-emergence action against MATIN (Matricaria inodora [6]; 20 g/ha) [%] | Pre-emergence action against MATIN (Matricaria inodora [6]; 80 g/ha) [%] | Pre-emergence action against VIOTR (Viola tricolor [7]; 80 g/ha) [%] | Post-emergence action against AMARE in % (Amaranthus retroflexus [8]; 5 g/ha) [%] | Post-emergence action against AMARE in % (Amaranthus retroflexus [8]; 20 g/ha) [%] | Post-emergence action against ALOMY (Alopecurus myosuroides [9]; 20 g/ha) [%] | Post-emergence action against ABUTH (Abutilon theophrasti [11]; 5 g/ha) [%] | Post-emergence action against ABUTH (Abutilon theophrasti [11]; 20 g/ha) [%] | Pre-emergence action against ALOMY (Alopecurus myosuroides [13]; 80 g/ha) [%] | Pre-emergence action against ABUTH (Abutilon theophrasti [14]; 20 g/ha) [%] | Pre-emergence action against ABUTH (Abutilon theophrasti [14]; 80 g/ha) [%] | Post-emergence action against ALOMY (Alopecurus myosuroides [9]; 5 g/ha) [%] | Post-emergence action against ECHCG in % (Echinochloa crus-galli [16]; 20 g/ha) [%] | Pre-emergence action against AVEFA (Avena fatua [17]) [%] | further results
1 | CN(CC(F)F)C(=O)c1c(C(F)(F)F)ccc(C(=O)Nc2nnnn2C)c1Cl [Example 1-128] | 100 | 90 | 100 | 100 | 100 | 100 | 80 | 90 | 100 | 100 | 100 | 80 | 80 | 90 | 100 | 100 | 100 | – | – | – | Post-emergence action against VIOTR in % (Viola tricolor [1]; 5 g/ha): 90%; Pre-emergence action against SETVI (Setaria viridis [5]; 20 g/ha): 90%; Pre-emergence action against VIOTR (Viola tricolor [7]; 20 g/ha): 100%; Pre-emergence action against VERPE (Veronica persica [10]): 100%; Pre-emergence action against DIGSA (Digitaria sanguinalis; 20 g/ha): 100%; Pre-emergence action against DIGSA (Digitaria sanguinalis; 80 g/ha): 100%; Post-emergence action against MATIN in % (Matricaria inodora [12]; 20 g/ha): 80%; Post-emergence action against PHBPU in % (Pharbitis purpurea; 20 g/ha): 90%; Pre-emergence action against POLCO (Polygonum convolvulus; 20 g/ha): 80%; Pre-emergence action against POLCO (Polygonum convolvulus; 80 g/ha): 80%; Post-emergence action against VERPE in % (Veronica persica [15]; 20 g/ha): 90%
2 | CCN(C)C(=O)c1c(Br)ccc(C(=O)Nc2nnnn2C)c1Cl [Example 1-192] | 80 | 100 | 80 | 100 | 80 | 100 | – | 100 | 100 | 100 | 100 | 100 | 90 | 90 | 100 | 80 | 100 | 90 | 100 | 80 | Post-emergence action against SETVI in % (Setaria viridis [2]; 5 g/ha): 100%; Pre-emergence action against LOLRI (Lolium rigidum): 80%; Post-emergence action against PHBPU in % (Pharbitis purpurea; 20 g/ha): 80%
3 | CN(C)C(=O)c1c(Br)ccc(C(=O)Nc2nnnn2C)c1Cl [Example 1-191] | – | 100 | – | 100 | 90 | 100 | 80 | 100 | 100 | 100 | 100 | 100 | 80 | 90 | 100 | 100 | 100 | 80 | 100 | 90 | Post-emergence action against AVEFA in % (Avena fatua [18]): 90%; Pre-emergence action against VERPE (Veronica persica [10]): 90%; Pre-emergence action against LOLRI (Lolium rigidum): 80%; Pre-emergence action against ALOMY (Alopecurus myosuroides [13]; 20 g/ha): 90%
4 | CN(C(=O)c1c(C(F)F)ccc(C(=O)Nc2nnnn2C)c1Cl)C1CC1 [Example 1-156] | 90 | 90 | 100 | 100 | 90 | 100 | 90 | 100 | 100 | 100 | 100 | 90 | 90 | 90 | 100 | 100 | 100 | 80 | 90 | 80 | Post-emergence action against VIOTR in % (Viola tricolor [1]; 5 g/ha): 90%; Post-emergence action against SETVI in % (Setaria viridis [2]; 5 g/ha): 90%; Pre-emergence action against VERPE (Veronica persica [10]): 90%; Post-emergence action against MATIN in % (Matricaria inodora [12]; 5 g/ha): 80%; Post-emergence action against MATIN in % (Matricaria inodora [12]; 20 g/ha): 90%; Post-emergence action against PHBPU in % (Pharbitis purpurea; 5 g/ha): 80%; Post-emergence action against PHBPU in % (Pharbitis purpurea; 20 g/ha): 90%; Pre-emergence action against POLCO (Polygonum convolvulus; 80 g/ha): 80%; Post-emergence action against VERPE in % (Veronica persica [15]; 5 g/ha): 80%; Post-emergence action against VERPE in % (Veronica persica [15]; 20 g/ha): 80%; Post-emergence action against ECHCG in % (Echinochloa crus-galli [16]; 5 g/ha): 90%
5 | CCN(C)C(=O)c1c(C(F)F)ccc(C(=O)Nc2nnnn2CC)c1C [Example 2-51] | 90 | 90 | 90 | 90 | – | – | 90 | 100 | 80 | 90 | 100 | 90 | 90 | 90 | 100 | 100 | 100 | 80 | 90 | 80 | Post-emergence action against VIOTR in % (Viola tricolor [1]; 5 g/ha): 90%; Post-emergence action against SETVI in % (Setaria viridis [2]; 5 g/ha): 80%; Post-emergence action against MATIN in % (Matricaria inodora [12]; 20 g/ha): 80%; Pre-emergence action against POLCO (Polygonum convolvulus; 80 g/ha): 90%; Post-emergence action against VERPE in % (Veronica persica [15]; 20 g/ha): 90%
6 | CCN(C)C(=O)c1c(Br)ccc(C(=O)Nc2nnnn2CC)c1Cl [Example 2-192] | 100 | 100 | 100 | 100 | 90 | 100 | 100 | 100 | 100 | 100 | 100 | 100 | 80 | 80 | 100 | 100 | 100 | 80 | 100 | 80 | Post-emergence action against SETVI in % (Setaria viridis [2]; 5 g/ha): 100%; Post-emergence action against AVEFA in % (Avena fatua [18]): 80%; Pre-emergence action against VERPE (Veronica persica [10]): 80%; Pre-emergence action against LOLRI (Lolium rigidum): 80%; Post-emergence action against PHBPU in % (Pharbitis purpurea; 20 g/ha): 80%

From patent publication US12599136B2, “Substituted isophthalic acid diamides and their use as herbicides” (Bayer Aktiengesellschaft, priority 2020, dated 2026)
